According to patent publication US20240409581A1, “SMALL-MOLECULE PEPTIDE AND USE THEREOF AGAINST METABOLIC-[…] LIVER DISEASE AND FOR REDUCING BODY WEIGHT” (Tunghai University, priority 2023, published 2024):

Assays:
Type in all cases: in vivo, C57BL/6JNarl mice (male)
[1] = system: MAFLD-mode mice (diet with 60% kcal fat+30% v/v fructose corn syrup); test: Analysis of the hepatic lipid content (enzymatic colorimetric method) of MAFLD-mode mice; conditions: eight weeks, liver; for hVLDL (hepatic very-low-density lipoprotein): calculated as 1/5 of the hepatic triglyceride level;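 as to hTC (hepatic total cholesterol): reported in mg/dL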;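 as to hTG (hepatic triglyceride): reported in mg/dL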;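 as to hVLDL (hepatic very-low-density lipoprotein): reported in mg/dL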
Method: (§1) 100 five-week-old C57BL/6JNarl mice (male) were raised in an environment whose temperature was 22-25° C., whose relative humidity was 45%-60%, and which adopted a 12-hour light/12-hour darkness cycle. The mice were fed with common feed and water for three weeks and then randomly divided into 10 groups, whose subsequent treatments are as follows:
(§2) Each of the four peptides was mixed with 0.5% Carboxymethyl Cellulose (CMC) to form a peptide solution, before the peptide solution was fed into the stomach of each mouse in the corresponding group with a syringe.
(§3) The test lasted eight weeks. The body weights of, and the amounts of food consumed by, the mice in each group were measured and recorded each week. The mice were sacrificed at the end of the test, and the livers, spleens, and white adipose tissue of the mice in each group were weighed.
After the test of example 1, the mice in each group were sacrificed, and the livers of the mice were collected in order to measure the hepatic lipid content of the liver of each mouse by an enzymatic colorimetric method. The items measured were hepatic triglyceride (hTG), hepatic total cholesterol (hTC), hepatic free fatty acid (hFFA), and hepatic very-low-density lipoprotein (hVLDL), wherein the hVLDL level was calculated as ⅕ of the hepatic triglyceride level.

[2] = system: MAFLD-mode mice (diet with 60% kcal fat+30% v/v fructose corn syrup); test: Animal test: body, liver, spleen and white adipose tissue weights of MAFLD-mode mice; conditions: for Epididymal white adipose tissue / Final body weight / Liver weight / Mesenteric white adipose tissue / Perirenal white adipose tissue / Spleen weight: eight weeks, high-fat/fructose diet; for Initial body weight: before the eight-week test
Method: as §1
Group 1: This was the blank group. The mice in this group were fed with common animal feed and distilled water.
Group 2: This was the control group. The mice in this group were fed with a diet with 60% kcal fat+30% v/v fructose corn syrup (and a 0.5% carboxymethyl cellulose (CMC) solution) and thereby induced to develop into MAFLD-mode mice.
Group 3: This was the low-dosage YF dipeptide group. The mice in this group were fed with the Tyr-Phe dipeptide at a dose of 10 mg/kg/day, in addition to a diet with 60% kcal fat+30% v/v fructose corn syrup.
Group 4: This was the high-dosage YF dipeptide group. The mice in this group were fed with the Tyr-Phe dipeptide at a dose of 50 mg/kg/day, in addition to a diet with 60% kcal fat+30% v/v fructose corn syrup.
Group 5: This was the low-dosage FY dipeptide group. The mice in this group were fed with the Phe-Tyr dipeptide at a dose of 10 mg/kg/day, in addition to a diet with 60% kcal fat+30% v/v fructose corn syrup.
Group 6: This was the high-dosage FY dipeptide group. The mice in this group were fed with the Phe-Tyr dipeptide at a dose of 50 mg/kg/day, in addition to a diet with 60% kcal fat+30% v/v fructose corn syrup.
Group 7: This was the low-dosage EWYF tetrapeptide group. The mice in this group were fed with the Glu-Trp-Tyr-Phe tetrapeptide (which has the sequence of SEQ ID No.: 1) at a dose of 10 mg/kg/day, in addition to a diet with 60% kcal fat+30% v/v fructose corn syrup.
Group 8: This was the high-dosage EWYF tetrapeptide group. The mice in this group were fed with the Glu-Trp-Tyr-Phe tetrapeptide (which has the sequence of SEQ ID No.: 1) at a dose of 50 mg/kg/day, in addition to a diet with 60% kcal fat+30% v/v fructose corn syrup.
Group 9: This was the low-dosage EWFY tetrapeptide group. The mice in this group were fed with the Glu-Trp-Phe-Tyr tetrapeptide (which has the sequence of SEQ ID No.: 2) at a dose of 10 mg/kg/day, in addition to a diet with 60% kcal fat+30% v/v fructose corn syrup.
Group 10: This was the high-dosage EWFY tetrapeptide group. The mice in this group were fed with the Glu-Trp-Phe-Tyr tetrapeptide (which has the sequence of SEQ ID No.: 2) at a dose of 50 mg/kg/day, in addition to a diet with 60% kcal fat+30% v/v fructose corn syrup.
as §2, §3

[3] = system: MAFLD-mode mice (diet with 60% kcal fat+30% v/v fructose corn syrup); test: Biochemical analysis of blood (sALT and serum lipid indices) of MAFLD-mode mice; conditions: eight weeks
Method: as §1, §2, §3
After the test of example 1, blood samples were taken from the mice in each group, and the serum alanine transaminase (sALT), serum triglyceride (sTG), serum total cholesterol (sTC), serum free fatty acid (sFFA), and serum very-low-density lipoprotein (sVLDL) levels of the blood samples were measured.

[4] = baseline of the 10 mg/kg/day group
[5] = baseline of the 50 mg/kg/day group

Question: Which results are given for “Glu-Trp-Phe-Tyr (EWFY) [groups 9 (10 mg/kg/day) and 10 (50 mg/kg/day)]”?
Answer: hFFA (hepatic free fatty acid) ([1]; 10 mg/kg/day): 111.78 ± 27.75 mEq/L; hTC (hepatic total cholesterol) ([1]; 10 mg/kg/day): 11.04 ± 1.11 mg/dL; hTG (hepatic triglyceride) ([1]; 10 mg/kg/day): 41.45 ± 9.45 mg/dL; hVLDL (hepatic very-low-density lipoprotein) ([1]; 10 mg/kg/day): 8.29 ± 1.89 mg/dL; hFFA (hepatic free fatty acid) ([1]; 50 mg/kg/day): 74.05 ± 19.5 mEq/L; hTC (hepatic total cholesterol) ([1]; 50 mg/kg/day): 5.96 ± 0.91 mg/dL; hTG (hepatic triglyceride) ([1]; 50 mg/kg/day): 22.47 ± 4.84 mg/dL; hVLDL (hepatic very-low-density lipoprotein) ([1]; 50 mg/kg/day): 4.49 ± 0.97 mg/dL; Epididymal white adipose tissue ([2]; 10 mg/kg/day into the stomach): 1.294 ± 0.330 g; Final body weight ([2]; 10 mg/kg/day into the stomach): 30.04 ± 1.70 g; Liver weight ([2]; 10 mg/kg/day into the stomach): 1.028 ± 0.068 g; Mesenteric white adipose tissue ([2]; 10 mg/kg/day into the stomach): 0.276 ± 0.081 g; Perirenal white adipose tissue ([2]; 10 mg/kg/day into the stomach): 0.513 ± 0.132 g; Spleen weight ([2]; 10 mg/kg/day into the stomach): 56.6 ± 7.0 mg; Epididymal white adipose tissue ([2]; 50 mg/kg/day into the stomach): 0.983 ± 0.231 g; Final body weight ([2]; 50 mg/kg/day into the stomach): 28.59 ± 1.82 g; Liver weight ([2]; 50 mg/kg/day into the stomach): 0.985 ± 0.072 g; Mesenteric white adipose tissue ([2]; 50 mg/kg/day into the stomach): 0.234 ± 0.056 g; Perirenal white adipose tissue ([2]; 50 mg/kg/day into the stomach): 0.445 ± 0.077 g; Spleen weight ([2]; 50 mg/kg/day into the stomach): 53.5 ± 5.7 mg; Initial body weight [2, 4]: 22.89 ± 1.08 g; Initial body weight [2, 5]: 22.78 ± 1.79 g; sALT (serum alanine transaminase) ([3]; 10 mg/kg/day): 45.6 ± 13.91 IU/L; sFFA (serum free fatty acid) ([3]; 10 mg/kg/day): 0.849 ± 0.235 mEq/L; sTC (serum total cholesterol) ([3]; 10 mg/kg/day): 147.45 ± 25.19 mg/dL; sTG (serum triglyceride) ([3]; 10 mg/kg/day): 100.53 ± 20.83 mg/dL; sVLDL (serum very-low-density lipoprotein) ([3]; 10 mg/kg/day): 20.11 ± 4.17 mg/dL; sALT (serum alanine transaminase) ([3]; 50 mg/kg/day): 34.2 ± 16.20 IU/L; sFFA (serum free fatty acid) ([3]; 50 mg/kg/day): 0.757 ± 0.303 mEq/L; sTC (serum total cholesterol) ([3]; 50 mg/kg/day): 135.78 ± 23.48 mg/dL; sTG (serum triglyceride) ([3]; 50 mg/kg/day): 91.47 ± 18.50 mg/dL; sVLDL (serum very-low-density lipoprotein) ([3]; 50 mg/kg/day): 18.29 ± 3.70 mg/dL

Question: Which results are given for “Glu-Trp-Tyr-Phe (EWYF) [groups 7 (10 mg/kg/day) and 8 (50 mg/kg/day)]”?
Answer: hFFA (hepatic free fatty acid) ([1]; 10 mg/kg/day): 108.17 ± 26.92 mEq/L; hTC (hepatic total cholesterol) ([1]; 10 mg/kg/day): 10.74 ± 1.38 mg/dL; hTG (hepatic triglyceride) ([1]; 10 mg/kg/day): 39.45 ± 9.93 mg/dL; hVLDL (hepatic very-low-density lipoprotein) ([1]; 10 mg/kg/day): 7.89 ± 1.99 mg/dL; hFFA (hepatic free fatty acid) ([1]; 50 mg/kg/day): 87.71 ± 21.90 mEq/L; hTC (hepatic total cholesterol) ([1]; 50 mg/kg/day): 8.19 ± 1.07 mg/dL; hTG (hepatic triglyceride) ([1]; 50 mg/kg/day): 31.49 ± 8.04 mg/dL; hVLDL (hepatic very-low-density lipoprotein) ([1]; 50 mg/kg/day): 6.29 ± 1.61 mg/dL; Epididymal white adipose tissue ([2]; 10 mg/kg/day into the stomach): 1.146 ± 0.306 g; Final body weight ([2]; 10 mg/kg/day into the stomach): 29.76 ± 1.77 g; Liver weight ([2]; 10 mg/kg/day into the stomach): 0.988 ± 0.084 g; Mesenteric white adipose tissue ([2]; 10 mg/kg/day into the stomach): 0.263 ± 0.070 g; Perirenal white adipose tissue ([2]; 10 mg/kg/day into the stomach): 0.499 ± 0.060 g; Spleen weight ([2]; 10 mg/kg/day into the stomach): 55.5 ± 6.4 mg; Epididymal white adipose tissue ([2]; 50 mg/kg/day into the stomach): 0.909 ± 0.269 g; Final body weight ([2]; 50 mg/kg/day into the stomach): 27.42 ± 1.97 g; Liver weight ([2]; 50 mg/kg/day into the stomach): 0.973 ± 0.089 g; Mesenteric white adipose tissue ([2]; 50 mg/kg/day into the stomach): 0.199 ± 0.061 g; Perirenal white adipose tissue ([2]; 50 mg/kg/day into the stomach): 0.418 ± 0.104 g; Spleen weight ([2]; 50 mg/kg/day into the stomach): 51.2 ± 5.9 mg; Initial body weight [2, 4]: 22.84 ± 1.71 g; Initial body weight [2, 5]: 22.82 ± 1.13 g; sALT (serum alanine transaminase) ([3]; 10 mg/kg/day): 39.3 ± 20.17 IU/L; sFFA (serum free fatty acid) ([3]; 10 mg/kg/day): 0.782 ± 0.309 mEq/L; sTC (serum total cholesterol) ([3]; 10 mg/kg/day): 139.71 ± 20.52 mg/dL; sTG (serum triglyceride) ([3]; 10 mg/kg/day): 96.18 ± 21.42 mg/dL; sVLDL (serum very-low-density lipoprotein) ([3]; 10 mg/kg/day): 19.24 ± 4.28 mg/dL; sALT (serum alanine transaminase) ([3]; 50 mg/kg/day): 27.9 ± 14.00 IU/L; sFFA (serum free fatty acid) ([3]; 50 mg/kg/day): 0.692 ± 0.24 mEq/L; sTC (serum total cholesterol) ([3]; 50 mg/kg/day): 126.96 ± 24.59 mg/dL; sTG (serum triglyceride) ([3]; 50 mg/kg/day): 81.84 ± 20.39 mg/dL; sVLDL (serum very-low-density lipoprotein) ([3]; 50 mg/kg/day): 16.37 ± 4.08 mg/dL
